Columns and labels:
[1] = target: IL-17A(FLAG-Tagged): IL-17RA(His-Tagged) (Homo sapiens, UniProt Q16552, K93Q); test: IL-17A(FLAG-Tagged): IL-17RA(His-Tagged) Binding Disruption Eu-HTRF Assay; conditions: disruption of IL-17A/IL-17RA binding; simple average if tested more than once
Source text: IL-17A(FLAG-Tagged): IL-17RA(His-Tagged) Binding Disruption Eu-HTRF Assay
An antibody directed against the FLAG tag of IL-17A (SEQ ID NO: 1) is labeled with the HTRF donor chromophore (Europium-cryptate). IL-17A is present as a dimer that is “locked into” this quaternary structure due to the formation of loop-spanning […] disulfide bridges. The construct of IL-17RA used in the assay excludes the […] portion of the receptor and is fused to a C-terminal 10×His tag (SEQ ID NO:2). An antibody directed against the His tag of the IL-17RA chimera is labeled with the HTRF acceptor chromophore (“D2”). The fluorescence-resonance energy transfer (FRET) depends on the vicinity of the donor chromophore to the acceptor, and interruption of the binding between the IL-17A and IL-17RA causes the reduction/loss of FRET. Therefore, this assay allows to evaluate the compound effect on the binding IL-17A and IL-17RA by monitoring the fluorescence intensity of donor vs acceptor. The assay is run as described below.
40 nL of 2-fold serial diluted compound solution for total 22 dilution points is added into each well of a 1536-well, white, low-volume, non-binding plate (Greiner #782904), then 2 μL of FLAG tagged IL-17A at 2× final concentration (2.5 nM) in solution of PBS+0.01% Triton-X100 is added to each well. The assay plate is briefly centrifuged then incubated for 1 h at rt. A mixed solution is prepared containing 2×5 nM 10HIS×IL-17RA, 2×2.5 nM Eu-anti-FLAG (CISBIO), 2×5 nM D2-anti-HIS (CISBIO) in PBS+0.01% Triton-X100+200 mM Potassium Fluoride (Sigma 60238) and 2 μL of mix is added to each well of the assay plate. The plate is briefly centrifuged then incubated for 2 h at rt. The HTRF intensities at the wavelength of donor (620 nm) and acceptor (665 nm) are measured using BMG Pherastar. The ratio between intensities at two wavelengths is calculated and plotted against the compound concentration and the data is fitted to a one-site competition model to yield IC50 of the compound.

[2] = system: IL-17A-induced G-CSF production in human normal keratinocytes (NHK); test: NHK Assay: IL-17A-induced G-CSF production in human normal keratinocytes; type: cell-based; conditions: IL-17A 5 ng/mL, 24 h, 5% FBS, simple average if tested more than once
Procedure: IL-17A acts directly on keratinocytes through binding to dimeric receptor IL-17RA/RC and drives the production of a number of inflammatory mediators known to be elevated in psoriasis lesional tissue. IL-17A small molecule inhibitors that block the IL-17A to interact with IL-17R would inhibit the IL-17A signaling in its targeted cells such as keratinocytes. The compound functional activity is evaluated for its impact on IL-17A-induced G-CSF production in human normal keratinocytes (NHK).
Adult normal human keratinocytes are cultured in keratinocyte growth medium (Lonza) in a flask till reaching ˜ 90% confluence, then cells are transferred to a 384-well plate at density of 3000-4000 cell/well. Recombinant human IL-17A (Gibco PHC9174) is pre-incubated with titrated compound or DMSO for 1 h at rt then added to the cell culture plate. The final concentration of IL-17A is 5 ng/mL and DMSO is 0.2%, in the culture containing 5% FBS. Cells are cultured/treated for 24 h at 37° C. Supernatants are collected and G-CSF production is measured through HTRF technology using Human G-CSF Kit (CisBio). G-CSF concentration was extrapolated from the standard curve and IC50 is determined using GraphPad Prism. Cell viability is also evaluated using CellTiter-Glo kit (Promega) and effect of compound on cell viability is compared to DMSO control.

Sequence of UniProt Q16552 (Q16552 with tags, fused parts or gaps K93Q): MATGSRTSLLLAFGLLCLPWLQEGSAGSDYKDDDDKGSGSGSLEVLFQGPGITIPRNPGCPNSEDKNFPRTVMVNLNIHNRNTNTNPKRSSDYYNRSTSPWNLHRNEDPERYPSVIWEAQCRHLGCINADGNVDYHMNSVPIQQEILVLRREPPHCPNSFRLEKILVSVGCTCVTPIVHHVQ

SMILES | IC50 [1] | IC50 [2] | IC50 ([2]; Homo sapiens, Keratinocyte)
Cc1c(C(=O)N[C@H](c2cn3ccc(C(NC(=O)CCC(F)(F)F)C4CC4)nc3n2)C2CCC(F)(F)CC2)cnn1CCC(F)(F)F (single isomer, unassigned) [Example 38, N—((S)-(7-((S*)-Cyclopropyl(4,4,4-trifluorobutanamido)methyl)imidazo[1,2-a]pyrimidin-2-yl)(4,4-difluorocyclohexyl)methyl)-5-methyl-1-(3,3,3-trifluoropropyl)-1H-pyrazole-4-carboxamide] | 890 nM | 930 nM | –
CC(C)n1ncnc1C(=O)N[C@H](c1cn2ccc([C@H](NC(=O)CC(C)C(F)(F)F)C3CC3)nc2n1)C1CCC(F)(F)CC1 (single isomer, unassigned) [Example 17, N—((S)-(7-((R)-Cyclopropyl((S*)-4,4,4-trifluoro-3-methylbutanamido)methyl)imidazo[1,2-a]pyrimidin-2-yl)(4,4-difluorocyclohexyl)methyl)-1-isopropyl-1H-1,2,4-triazole-5-carboxamide] | 220 nM | – | 1100 nM
O=C(CC1CC(F)(F)C1)N[C@@H](c1ccn2cc([C@@H](NC(=O)[C@@H]3C[C@H]3C(F)(F)F)C3CCC(F)(F)CC3)nc2n1)C1CC1 (relative stereo) [Example 11, trans-(1S*,2S*)—N—((S)-(7-((R)-Cyclopropyl(2-(3,3-difluorocyclobutyl)acetamido)methyl)imidazo[1,2-a]pyrimidin-2-yl)(4,4-difluorocyclohexyl)methyl)-2-(trifluoromethyl)cyclopropane-1-carboxamide] | 660 nM | – | 540 nM
O=C(CC1CC(F)(F)C1)N[C@H](c1ccn2cc([C@@H](NC(=O)c3ccnc(CC(F)(F)F)c3)C3CCC(F)(F)CC3)nc2n1)C1CC1 [Example 28, N—((S)-(7-((S)-Cyclopropyl(2-(3,3-difluorocyclobutyl)acetamido)methyl)imidazo[1,2-a]pyrimidin-2-yl)(4,4-difluorocyclohexyl)methyl)-2-(2,2,2-trifluoroethyl)isonicotinamide] | 5400 nM | – | 1200 nM
O=C(CC1CC(F)(F)C1)N[C@H](c1ccn2cc([C@@H](NC(=O)c3conc3CCC(F)(F)F)C3CCC(F)(F)CC3)nc2n1)C1CC1 [Example 29, N—((S)-(7-((S)-Cyclopropyl(2-(3,3-difluorocyclobutyl)acetamido)methyl)imidazo[1,2-a]pyrimidin-2-yl)(4,4-difluorocyclohexyl)methyl)-3-(3,3,3-trifluoropropyl)isoxazole-4-carboxamide] | 2300 nM | – | 2600 nM
O=C(CCC(F)(F)F)NC(c1ccn2cc([C@@H](NC(=O)c3cnnn3CCC(F)(F)F)C3CCC(F)(F)CC3)nc2n1)C1CC1 (single isomer, unassigned) [Example 1, N—((S)-(7-((R*)-Cyclopropyl(4,4,4-trifluorobutanamido)methyl)imidazo[1,2-a]pyrimidin-2-yl)(4,4-difluorocyclohexyl)methyl)-1-(3,3,3-trifluoropropyl)-1H-1,2,3-triazole-5-carboxamide] | 290 nM | 390 nM | –

The next lines start with results.

IC50 [1] | SMILES | IC50 [2] | IC50 ([2]; Homo sapiens, Keratinocyte)
480 nM | O=C(CCC(F)(F)F)NC(c1ccn2cc([C@@H](NC(=O)c3ccn(CCC(F)(F)F)n3)C3CCC(F)(F)CC3)nc2n1)C1CC1 (single isomer, unassigned) [Example 42, N—((S)-(7-((S*)-Cyclopropyl(4,4,4-trifluorobutanamido)methyl)imidazo[1,2-a]pyrimidin-2-yl)(4,4-difluorocyclohexyl)methyl)-1-(3,3,3-trifluoropropyl)-1H-pyrazole-3-carboxamide] | 520 nM | –
6800 nM | O=C(CCC(F)(F)F)NC(c1ccn2cc([C@@H](NC(=O)c3cnn(CCC(F)(F)F)c3)C3CCC(F)(F)CC3)nc2n1)C1CC1 (stereo in doubt) [Example 50, N—((S)-(7-((R*)-Cyclopropyl(4,4,4-trifluorobutanamido)methyl)imidazo[1,2-a]pyrimidin-2-yl)(4,4-difluorocyclohexyl)methyl)-1-(3,3,3-trifluoropropyl)-1H-pyrazole-4-carboxamide] | – | > 20000 nM
